The results in this text go back to patent publication US7960427B2, “5-hydroxyindole-3-carboxylate derivatives and uses thereof” (priority 2004, dated 2011).

Data set [1] deals with 2.2.15 cells. Put plainly: Cytotoxicity (TC50) in 2.2.15 cells. It counts as cell-based. The procedure:
(§1) All compounds were evaluated for their anti-HBV activities, namely the ability to inhibit the replication of HBV DNA and the production of HBsAg and HBeAg in HBV-infected 2.2.15 cells.
(§2) The samples were dissolved in DMSO for appropriate concentrations, and then each was diluted 3-fold with culture medium. The 2.2.15 cells were planted into 96-well culture plates. […] The culture supernatants and 2.2.15 cells were collected respectively on the 8th plant day. The secretion concentrations of HBsAg and HBeAg in the culture supernatants were measured by RIA on SPRIA Kit for Detection of HBsAg and HBeAg (Beijing North Institute of Biological Technology), and the replication of HBV DNA was measured by dot hybridization with a^32PdCTP (FuRui Biological Technology Ltd., China).

For data set [2], the system named is HBV DNA. Put plainly: In vitro anti-HBV activity: replication of HBV DNA in 2.2.15 cells (dot hybridization). The note with it: for IC50: Hepatitis B virus, read-out: DNA replication IC50; for DNA replication SI: selectivity index. It counts as cell-based, Hepatitis B virus (HBV). The method, then:
as §1, §2

Data set [3] deals with T1, HIV-1 protease (Human immunodeficiency virus type 1 group M subtype B, UniProt P04585).
T1 construct: The genetically engineered target enzyme (HIV-1 protease, preserved at −85° C.)
The experiment in a line: Anti-HIV-1 protease activity (fluorescence labeled substrate). It counts as biochemical. As to conditions: for inhibition ratio at 0.5 ug/ml: sample concentration 0.5 ug/ml; for inhibition ratio at 2.0 ug/ml: sample concentration 2.0 ug/ml; for inhibition ratio at 10 ug/ml: sample concentration 10 ug/ml; for inhibition ratio at 50 ug/ml: sample concentration 50 ug/ml; for inhibition ratio at 250 ug/ml: sample concentration 250 ug/ml. The procedure:
HIV-1 protease can cut the fluorescence labeled substrate under optimal condition and reaction system, so the activity of enzyme is determined by the fluorescence in the product of enzymatic reaction. The samples are added into the reaction system to observe the inhibitive effect on the enzyme.
The samples and the reference drug Indinavir ([…].) were dissolved in DMSO or redistilled water for appropriate concentration. Each was diluted 5-fold and then added into the buffer containing fluorescence labeled substrate (MP Co.). The genetically engineered target enzyme (HIV-1 protease, preserved at −85° C.) was added to the buffer and incubated under the optimal reaction condition. The fluorescence was determined by FLUO star Galaxy fluorometer.

Structures are written as SMILES. ≈ marks a conversion by molar mass, not a printed value. Structures can show the parent of a compound that is named as a salt.

In data set [1], `CCOC(=O)c1c(C[S+]([O-])c2ccc(F)cc2)n(C2CC2)c2cc(Br)c(O)c(Cn3ccnc3C)c12` (stereo not drawn) [Example 138, Ethyl 6-bromo-1-cyclopropyl-5-hydroxy-4-[(2-methyl-1-imidazolyl)methyl]-2-[(4-fluorophenyl)sulfinylmethyl]-1H-indole-3-carboxylate] returned a TC50 of 18.52 µg/mL (≈ 32.2 µM). In data set [2], the IC50 came to 5 µg/mL (≈ 8.7 µM) and the “DNA replication SI” value amounted to 3.74. Also, in data set [3], the IC50 is 111 µM, the “inhibition ratio at 0.5 ug/ml” value is reported as 6.8, the “inhibition ratio at 2.0 ug/ml” value is listed as −2.3 and the “inhibition ratio at 10 ug/ml” value turned out to be 6.4. Further, in data set [3], the “inhibition ratio at 50 ug/ml” value stood at 12.7 and the “inhibition ratio at 250 ug/ml” value is recorded as 75.7.
Molecule `CCOC(=O)c1c(CSc2ccc(F)cc2)n(C)c2cc(Br)c(O)c(CN3CCN(C)CC3)c12` [Example 17, Ethyl 6-bromo-5-hydroxy-1-methyl-4-[(4-methyl-1-piperazinyl)methyl]-2-[(4-fluorophenyl)thiomethyl]-1H-indole-3-carboxylate dihydrochloride] registered a TC50 in data set [1] of 62.50 µg/mL. For the same molecule, in data set [2], the IC50 came to 17.8 µg/mL and the “DNA replication SI” value is listed as 3.5. Besides, in data set [3], the “inhibition ratio at 0.5 ug/ml” value is listed as −6.1, the “inhibition ratio at 2.0 ug/ml” value was −8.3, the “inhibition ratio at 10 ug/ml” value is −13.0 and the “inhibition ratio at 50 ug/ml” value is −17.3. Besides, the “inhibition ratio at 250 ug/ml” value in data set [3] was determined as 27.6.
In turn, `CCOC(=O)c1c(C[S+]([O-])c2ccc(F)cc2)n(C)c2cc(Br)c(O)c(CN3CCOCC3)c12` (stereo not drawn) [Example 58, Ethyl 6-bromo-5-hydroxy-1-methyl-4-(morpholinomethyl)-2-[(4-fluorophenyl)sulfinylmethyl]-1H-indole-3-carboxylate] showed a TC50 in data set [1] greater than 500 µg/mL. In data set [2], the 50% inhibitory concentration (IC50) is 57.6 µg/mL (≈ 104 µM) and the “DNA replication SI” value is reported as greater than 8.7. In data set [3], the “inhibition ratio at 0.5 ug/ml” value turned out to be 11.7, the “inhibition ratio at 2.0 ug/ml” value is 11.6, the “inhibition ratio at 10 ug/ml” value is 15.9 and the “inhibition ratio at 50 ug/ml” value is on record as 22.9. Further, the “inhibition ratio at 250 ug/ml” value in data set [3] is 37.4.
For the molecule `CCOC(=O)c1c(CS(=O)(=O)Cc2ccccc2)n(C)c2cc(Br)c(O)c(Cn3ccnc3C)c12` [Example 168, Ethyl 6-bromo-5-hydroxy-1-methyl-4-[(2-methyl-1-imidazolyl)methyl]-2-(benzylsulfonylmethyl)-1H-indole-3-carboxylate], in data set [1], the TC50 amounted to 35.61 µg/mL (≈ 63.5 µM). In data set [2], the IC50 was determined as 7.04 µg/mL (≈ 12.6 µM) and the “DNA replication SI” value came to 5.06.
With `CCOC(=O)c1c(C[S+]([O-])c2ccc(C)cc2)n(C)c2ccc(O)c(Cn3ccnc3C)c12` (stereo not drawn) [Example 142, Ethyl 5-hydroxy-1-methyl-4-[(2-methyl-1-imidazolyl)methyl]-2-[(4-methylphenyl)sulfinylmethyl]-1H-indole-3-carboxylate], in data set [1], the TC50 turned out to be 106.83 µg/mL (≈ 229 µM). In data set [2], the IC50 is 23.8 µg/mL (≈ 51.1 µM) and the “DNA replication SI” value amounted to 4.49.
As to `CCOC(=O)c1c(C[S+]([O-])Cc2ccoc2)n(C)c2ccc(O)c(CN3CCCCC3)c12.Cl` (stereo not drawn) [Example 77, Ethyl 5-hydroxy-1-methyl-4-(piperidinomethyl)-2-[(3-furylmethyl)sulfinylmethyl]-1H-indole-3-carboxylate hydrochloride], the TC50 in data set [1] worked out at 74.07 µg/mL. Also, in data set [2], the IC50 came to 18.1 µg/mL and the “DNA replication SI” value is given as 4.09.
In data set [1], `CCOC(=O)c1c(C[S+]([O-])c2ccc(C)cc2)n(C)c2cc(Br)c(O)c(CNC(=N)N)c12.Cl` (stereo not drawn) [Example 152, Ethyl 6-bromo-4-(guanidinylmethyl)-5-hydroxy-1-methyl-2-[(4-methylphenyl)sulfinylmethyl]-1H-indole-3-carboxylate hydrochloride] gave a TC50 of 192.45 µg/mL. For the same molecule, in data set [2], the IC50 was 10.2 µg/mL and the “DNA replication SI” value was determined as 18.8.
`CCOC(=O)c1c(CS(=O)(=O)Cc2ccccc2)n(C)c2cc(Br)c(O)c(CNC(=N)N)c12` [Example 173, Ethyl 6-bromo-4-(guanidinylmethyl)-5-hydroxy-1-methyl-2-(benzylsulfonylmethyl)-1H-indole-3-carboxylate] had a TC50 in data set [1] of 24.69 µg/mL (≈ 45.9 µM). Further, in data set [2], the concentration for half-maximal inhibition (IC50) was 5.04 µg/mL (≈ 9.38 µM) and the “DNA replication SI” value is listed as 4.90.
In data set [1], `CCOC(=O)c1c(C[S+]([O-])Cc2ccco2)n(C2CC2)c2cc(Br)c(O)c(Cn3ccnc3)c12` (stereo not drawn) [Example 130, Ethyl 6-bromo-1-cyclopropyl-5-hydroxy-4-[(1-imidazolyl)methyl]-2-[(2-furylmethyl)sulfinylmethyl]-1H-indole-3-carboxylate] gave a TC50 of 24.69 µg/mL (≈ 45.2 µM). Moreover, in data set [2], the IC50 came out at 5.94 µg/mL (≈ 10.9 µM) and the “DNA replication SI” value is on record as 4.16.
As to `CCOC(=O)c1c(C[S+]([O-])c2c(Cl)cccc2Cl)n(C2CC2)c2cc(Br)c(O)c(Cn3ccnc3C)c12` (stereo not drawn) [Example 137, Ethyl 6-bromo-1-cyclopropyl-5-hydroxy-4-[(2-methyl-1-imidazolyl)methyl]-2-[(2,6-dichlorophenyl)sulfinylmethyl]-1H-indole-3-carboxylate], in data set [1], the TC50 was determined as 160.2 µg/mL (≈ 256 µM). In data set [2], the half-maximal inhibitory concentration (IC50) amounted to 35.5 µg/mL (≈ 56.7 µM) and the “DNA replication SI” value worked out at 4.51.
For `CCOC(=O)c1c(C[S+]([O-])Cc2cccc(F)c2)n(C)c2cc(Br)c(O)c(CN3CCOCC3)c12` (stereo not drawn) [Example 87, Ethyl 6-bromo-5-hydroxy-1-methyl-4-(morpholinomethyl)-2-[(3-fluorobenzyl)sulfinylmethyl]-1H-indole-3-carboxylate], in that order: 21.39 µg/mL (≈ 37.7 µM), 0.53 µg/mL (≈ 0.934 µM) and 40.35.
The molecule `CCOC(=O)c1c(C[S+]([O-])Cc2cccc(F)c2)n(C)c2cc(Br)c(O)c(CN(C)C)c12` (stereo not drawn) [Example 81, Ethyl 6-bromo-4-[(dimethylamino)methyl]-5-hydroxy-1-methyl-2-[(3-fluorobenzyl)sulfinylmethyl]-1H-indole-3-carboxylate] had a TC50 in data set [1] of 35.61 µg/mL (≈ 67.8 µM). In data set [2], the IC50 came to 0.715 µg/mL (≈ 1.36 µM) and the “DNA replication SI” value is listed as 49.8.
`CCOC(=O)c1c(CS(=O)(=O)c2ccc(C(F)(F)F)cc2)n(C)c2cc(Br)c(O)c(Cn3ccnc3C)c12` [Example 180, Ethyl 6-bromo-5-hydroxy-1-methyl-4-[(2-methyl-1-imidazolyl)methyl]-2-[(4-trifluoromethylphenyl)sulfonylmethyl]-1H-indole-3-carboxylate] displayed a TC50 in data set [1] of 51.36 µg/mL (≈ 83.6 µM). Further, in data set [2], the half-inhibitory concentration (IC50) worked out at 3.56 µg/mL (≈ 5.79 µM) and the “DNA replication SI” value is recorded as 14.43.
`CCOC(=O)c1c(C[S+]([O-])Cc2ccc(F)cc2)n(C)c2cc(Br)c(O)c(Cn3ccnc3C)c12` (stereo not drawn) [Example 184, Ethyl 6-bromo-5-hydroxy-1-methyl-4-[(2-methyl-1-imidazolyl)methyl]-2-[(4-fluorobenzyl)sulfinylmethyl]-1H-indole-3-carboxylate]: the TC50 in data set [1] worked out at 53.42 µg/mL (≈ 95 µM). Moreover, in data set [2], the half-inhibitory concentration (IC50) is 0.94 µg/mL (≈ 1.67 µM) and the “DNA replication SI” value is 56.83.
For `Nc1ccn([C@@H]2CS[C@H](CO)O2)c(=O)n1` [Example 3TC, Lamivudine, reference compound], the TC50 in data set [1] turned out to be 1600 µg/mL (≈ 6980 µM). Also, the 50% inhibitory concentration (IC50) in data set [2] is 228 µg/mL (≈ 994 µM).
Molecule `CCOC(=O)c1c(C[S+]([O-])c2ccc(F)cc2)n(C2CC2)c2cc(Br)c(O)c(Cn3ccnc3)c12` (stereo not drawn) [Example 117, Ethyl 6-bromo-1-cyclopropyl-5-hydroxy-4-[(1-imidazoly)methyl]-2-[(4-fluorophenyl)sulfinylmethyl]-1H-indole-3-carboxylate] yielded a TC50 in data set [1] of 55.56 µg/mL (≈ 99.1 µM). Further, in data set [2], the IC50 worked out at 11.4 µg/mL (≈ 20.3 µM) and the “DNA replication SI” value stood at 4.87.
In the same order, the values of `CCOC(=O)c1c(C[S+]([O-])c2cccc(Cl)c2)n(C)c2cc(Br)c(O)c(CN3CCOCC3)c12` (stereo not drawn) [Example 59, Ethyl 6-bromo-5-hydroxy-1-methyl-4-(morpholinomethyl)-2-[(3-chlorophenyl)sulfinylmethyl]-1H-indole-3-carboxylate] are 288.68 µg/mL (≈ 507 µM), 26.6 µg/mL (≈ 46.7 µM) and 10.8.
For `CCOC(=O)c1c(C[S+]([O-])c2ccc(F)c(F)c2)n(C2CC2)c2cc(Br)c(O)c(Cn3ccnc3)c12` (stereo not drawn) [Example 119, Ethyl 6-bromo-1-cyclopropyl-5-hydroxy-4-[(1-imidazolyl)methyl]-2-[(3,4-difluorophenyl)sulfinylmethyl]-1H-indole-3-carboxylate], in that order: 21.11 µg/mL (≈ 36.5 µM), 3.6 µg/mL (≈ 6.22 µM) and 5.8.
